Publication PMC10882622, “Cytosolic Delivery of Bioactive Cyclic Peptide Cargo by Spontaneous Membrane Translocating Peptides” (ACS Omega, 2024)
Values joined by “and” are separate entries in the source; they are usually repeats but may differ in a detail not shown here. Identical values can stand only once. Numbered stars: 1 amine (or outer) side, 2 acyl side, 3 side chain; on linkers, the order of the positions; unused ones are H or OH. Bridge positions count the residues as written; N and C are the ends. Square brackets hold non-standard residues; d marks the D form. Peptide text beside a SMILES is read from it. I, II: the chains in the order shown. Trp(2-yl) = O=C([C@H](Cc1c([*:3])[nH]c2ccccc12)N[*:1])[*:2]; X1 = O=C1CC([*:1])C(=O)N1CC1CCC(C(=O)[*:2])CC1; Leu(4R-OH,5-OH) = C[C@](O)(CO)C[C@H](N)C(=O)O; cisHyp = O=C(O)[C@@H]1C[C@H](O)CN1

Assays:
pyrene-labeled actin = target: T1, pyrene-labeled actin (Oryctolagus cuniculus, UniProt P68135); assay: in vitro actin depolymerization assay (pyrene excimer fluorescence, Cytoskeleton kit); assay type: biochemical; settings: polymerized pyrene-actin, 0–50 μM, rates by linear regression, normalized to buffer-only control, averaged; read-out: EC50 for inhibition of actin depolymerization (initial depolymerization rate vs concentration)
T1 construct: purchased Cytoskeleton, Inc
Description: An actin polymerization biochemistry kit (Cytoskeleton, Inc.) was used to assay the bioactivity of the phalloidin conjugates. All experiments were performed in a 96-well format and read on a fluorescent plate reader (Biotek Synergy II). Actin-pyrene monomers formed filamentous actin by using the supplied polymerization buffer, which caused pyrene excimer fluorescence (excitation 365 nm and emission 407 nm). Serial dilutions of phalloidin or TP2-SMCC-Ph were added to the filamentous actin-pyrene as well as a no peptide control. A supplied depolymerization buffer was then added to samples, and loss of fluorescence was monitored on the plate reader as a function of time. […] Calculated rates are normalized to the buffer-only controls.
The 7-position of natural phalloidin is a 4,5-dihydroxy leucine residue. […] Pyrene excimer fluorescence is measured such that depolymerization will drive a decrease in intensity. Polymerized actin, with added phalloidin or TP2-SMCC-Ph, is triggered to depolymerize at time zero, and the rate of excimer decrease is measured.
Figure 3 Control experiments. […] Pyrene excimer fluorescence was excited at 390 nm and monitored at 460 nm over 1 h. (B) Initial depolymerization rates from experiments such as the one shown in Panel A were measured by linear regression and averaged. […] Right axis: washed human red blood cells were incubated for 1 h, and hemoglobin release was measured.

HT1080 cells = assay: wound-healing scratch (cell migration) assay; assay type: cell-based, human; design: cell migration: dose or concentration left out as unconfirmed
Description: A total of 30,000 HT1080 cells were seeded into each well of a 96-well plate in complete media and incubated for 24 h. Cells were washed with DPBS and incubated in serum-free media (SFM) for the next 48 h. Treatment with TP1/2/3-S-Ph, cytochalasin D, or media control, containing DMSO equal to treatment (% v/v), was done for four h at 37 °C. Cells were washed three times with DPBS and then scratched with 10 μL pipet tips on a multichannel pipettor. Evaluation of area closure was performed by phase contrast microscopic imaging of each well at 4× magnification, hourly, for 24 h with the Biotek Cytation 5 cell imaging reader and the BioSpa 8 automated incubator. Only the linear portion of the time course, up to 8 h, was used for analysis. For each condition studied, the scratch assay was performed in at least 6 biologically independent experiments, and each experiment consisted of 2–3 technical replicates.
ImageJ was used to trace the perimeter of each scratch. The gap area (GA) of each scratch was generated with ImageJ via batch processing with a lower threshold of 0 and an upper threshold of 60. The gap area for treatment groups was averaged and relativized as follows: [drawing 1]
Mean relative GA was plotted over time, and the absolute value of the slope from 1 to 8 h for each treatment was determined. Lastly, slopes were normalized against SFM controls.
We performed 4 h incubation in the presence of peptide chimeras and then washed the cells with PBS three times prior to conducting the scratch-closing measurements. This approach enabled us to assay only for rapid and nonreversible delivery of phalloidin cargo to the cytosol of cells by the peptides. The control compound cytochalasin D needed to be maintained at the noted concentration throughout the entire incubation time because, unlike the peptides, it is readily washed out of cells and has no effect if incubated for 4 h and washed away.
Figure 4 Example scratch assay. For this assay, a total of 30,000 HT1080 cells were seeded into each well of a 96-well cell culture plate in complete media and incubated for 24 h. Cells were washed with DPBS and incubated in serum-free media (SFM) for the next 48 h. Treatment with serum-free media, cytochalasin D, or peptide was done for 4 h at 37 °C. Cells were washed three times with DPBS and then scratched with 10 μL pipet tips on a multichannel pipettor. Cytochalasin D was replaced at the intended concentration, but the peptide was not. Evaluation of wound area was performed by phase contrast microscopic imaging of each well at 4× magnification with a BioTek Cytation 5 cell imaging reader and the BioSpa 8 automated incubator. Here, we show example images from a typical scratch assay taken 0, 1, 3, and 6 h after scratching a channel in the middle of the surface. Red lines show the edge of the wound identified by ImageJ and were used to calculate the total wound area from each image.
Migration rates were normalized to that of the NT/SFM group, which was always the fastest closing group. Each experiment was repeated in at least 6 biologically independent experiments, and each biologically independent experiment was repeated in 2–3 technical replicates.

HeLa cells = assay: cytotoxicity, cell viability by Alamar Blue; assay type: cell-based, human; settings: Alamar Blue fluorescence after 72 h
Description: Validated HeLa human […] cancer cells and HT1080 human epithelial fibrosarcoma cells were obtained from ATCC and were used at a low passage number without modification. All cells were maintained in T75 flasks in an incubator at 37 °C, 5% CO2 in complete media: DMEM containing 10% (%v/v) FBS, glucose, sodium pyruvate, L-glutamine, nonessential amino acids, and antibiotics. Serum-free media (SFM) was prepared in the same fashion as complete media but lacked FBS. Cells were maintained daily with two DPBS washes and replacement of complete media. When ≥90% confluent, cells were passaged using trypsin and seeded into another T75 flask and/or 96-well plates.
(§1) Figure 3 Control experiments. (A) Example in vitro actin depolymerization assay. Depolymerization of pyrene-labeled actin from Cytoskeleton, Inc. was initiated at time zero in the presence of 0–50 μM TP2-S-Ph conjugate. Pyrene excimer fluorescence was excited at 390 nm and monitored at 460 nm over 1 h. (B) Initial depolymerization rates from experiments such as the one shown in Panel A were measured by linear regression and averaged. We show depolymerization rates versus concentration for phalloidin and for the D-TP2-S-Ph conjugate. EC50 values are ∼3 μM for phalloidin and ∼6 μM for D-TP2-S-Ph. (C) Cytotoxicity and hemolysis caused by TP2, phalloidin, and the TP2-S-Ph chimera. Left axis: HeLa cells were incubated with the indicated concentration of compound for 4 h, and cell viability was measured by Alamar Blue fluorescence after 72 h. Right axis: washed human red blood cells were incubated for 1 h, and hemoglobin release was measured.
(§2) To further test for indirect cytotoxicity, we incubated HeLa cells with TP2-S-Ph, TP2 alone, and free phalloidin for 72 h, Figure 3C, and measured cell viability using Alamar Blue.

human red blood cells = assay: hemolysis, hemoglobin release; assay type: cell-based; settings: washed human red blood cells, incubated 1 h
Description: as §1, §2

[1] = 100 nM continuous, HT1080, serum-free media

SMILES | EC50 (pyrene-labeled actin) | size of effect on cell migration compared with cytochalasin D control (HT1080 cells; 25 μM, applied for 4 h then washed off, control 100 nM continuous CD) | effect on migration (mean wound closure rate) compared to no treatment, one-way ANOVA (HT1080 cells; at 25, 12.5, 6.3, and 3.1 μM, 4 h incubation then washed, slope 1–8 h, at least 6 independent experiments) | toxicity to HeLa cells (cell viability) (HeLa cells; 0–25 μM concentration range) | toxicity to HeLa cells (cell viability) (HeLa cells; at 50 μM) | hemolysis of red blood cells (human red blood cells) | cell migration over the first 6 h (HT1080 cells; [1]) | inhibition of cell movement (HT1080 cells; [1]) | effect on cell migration after wash-out (HT1080 cells; incubated for 4 h and washed away) | cell migration (HT1080 cells; treatment, continuous, HT1080) | cytotoxic effects on HeLa cells (cell viability) (HeLa cells; up to 1 mM)
CC[C@@H](C)[C@@H](NC(=O)[C@@H](CC(C)C)NC(=O)[C@H]1CCCN1)C(=O)N[C@H](Cc1ccc(O)cc1)C(=O)N[C@H](CC(C)C)C(=O)N[C@H](CCCNC(=N)N)C(=O)N[C@H](CC(C)C)C(=O)N[C@H](CC(C)C)C(=O)N[C@H](CCCNC(=N)N)C(=O)NCC(=O)N[C@H](CCC(N)=O)C(=O)N[C@H](Cc1c[nH]c2ccccc12)C(=O)N[C@H](CSC1CC(=O)N(CC2CCC(C(=O)NCCCC[C@@H]3NC(=O)[C@@H]4Cc5c([nH]c6ccccc56)SC[C@H](NC(=O)[C@@H]([C@H](C)O)NC(=O)[C@H](C)NC3=O)C(=O)N3C[C@@H](O)C[C@H]3C(=O)N[C@@H](C)C(=O)N4)CC2)C1=O)C(N)=O (stereo partly drawn) [TP2-S-Ph] (I: H-[dP][dL][dI][dY][dL][dR][dL][dL][dR]G[dQ][dW][dC]-NH2 / II: cyclo([cisHyp]A[Trp(2-yl)]KA[dT]C); linker I:13-II:4 via X1; thioether II:3-II:7) | < 5 µM and ~6 µM | at least as large as the CD control | significant effects | Neither the conjugated TP2 nor TP2 alone showed any toxicity | the conjugate did not | no hemolytic activity | – | – | – | – | –
C=C1[C@@H](C)[C@H]2[C@H](Cc3ccccc3)NC(=O)[C@]23[C@H](OC(C)=O)/C=C/[C@@](C)(O)C(=O)[C@@H](C)C/C=C/[C@H]3[C@@H]1O [cytochalasin D] | – | – | – | – | – | – | little to no migration | inhibited cell movement completely | no effect | some migration | –
C[C@@H]1NC(=O)[C@H](C[C@@](C)(O)CO)NC(=O)[C@@H]2Cc3c([nH]c4ccccc34)SC[C@H](NC(=O)[C@@H]([C@H](C)O)NC1=O)C(=O)N1C[C@@H](O)C[C@H]1C(=O)N[C@@H](C)C(=O)N2 [phalloidin] (cyclo(A[dT]C[cisHyp]A[Trp(2-yl)][Leu(4R-OH,5-OH)]); thioether 3-6 (inferred); ring closure inferred) | < 5 µM and ~3 µM | – | – | – | – | – | – | – | – | – | no cytotoxic effects
